ChEMBL document CHEMBL2321709, “Acetylcholinesterase immobilized capillary reactors-tandem mass spectrometry: an on-flow tool for ligand screening” (J Med Chem, 2013)

Experiments:
Acetylcholinesterase = Acetylcholinesterase (Electrophorus electricus, UniProt O42275); assay: Competitive inhibition of Electrophorus electricus AChE using acetylcholine as substrate by Lineweaver-Burk plot method
[1] = target: Acetylcholinesterase (Electrophorus electricus) (UniProt O42275); assay: Inhibition of Electrophorus electricus AChE using acetylcholine as substrate by chromatography relative to control; conditions: concentration not given here
Sequence of Acetylcholinesterase (Electrophorus electricus) (O42275 24-633 limits assumed): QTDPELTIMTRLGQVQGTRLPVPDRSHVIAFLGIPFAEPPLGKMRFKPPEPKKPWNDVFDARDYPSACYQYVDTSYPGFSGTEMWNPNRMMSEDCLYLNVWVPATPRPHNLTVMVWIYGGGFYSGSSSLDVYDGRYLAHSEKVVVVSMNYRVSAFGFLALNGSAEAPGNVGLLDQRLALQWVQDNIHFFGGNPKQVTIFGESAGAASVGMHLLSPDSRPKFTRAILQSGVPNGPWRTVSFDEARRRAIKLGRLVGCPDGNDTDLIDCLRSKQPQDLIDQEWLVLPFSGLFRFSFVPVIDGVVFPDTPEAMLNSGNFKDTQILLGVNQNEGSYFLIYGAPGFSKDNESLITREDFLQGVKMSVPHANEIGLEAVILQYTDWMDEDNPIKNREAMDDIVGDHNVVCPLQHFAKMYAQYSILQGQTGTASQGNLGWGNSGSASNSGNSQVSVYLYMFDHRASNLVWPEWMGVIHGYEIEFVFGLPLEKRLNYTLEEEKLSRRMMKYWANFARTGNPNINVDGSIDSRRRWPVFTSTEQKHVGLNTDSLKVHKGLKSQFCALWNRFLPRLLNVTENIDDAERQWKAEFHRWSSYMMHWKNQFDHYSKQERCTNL

Sequence of Acetylcholinesterase (O42275 whole entry): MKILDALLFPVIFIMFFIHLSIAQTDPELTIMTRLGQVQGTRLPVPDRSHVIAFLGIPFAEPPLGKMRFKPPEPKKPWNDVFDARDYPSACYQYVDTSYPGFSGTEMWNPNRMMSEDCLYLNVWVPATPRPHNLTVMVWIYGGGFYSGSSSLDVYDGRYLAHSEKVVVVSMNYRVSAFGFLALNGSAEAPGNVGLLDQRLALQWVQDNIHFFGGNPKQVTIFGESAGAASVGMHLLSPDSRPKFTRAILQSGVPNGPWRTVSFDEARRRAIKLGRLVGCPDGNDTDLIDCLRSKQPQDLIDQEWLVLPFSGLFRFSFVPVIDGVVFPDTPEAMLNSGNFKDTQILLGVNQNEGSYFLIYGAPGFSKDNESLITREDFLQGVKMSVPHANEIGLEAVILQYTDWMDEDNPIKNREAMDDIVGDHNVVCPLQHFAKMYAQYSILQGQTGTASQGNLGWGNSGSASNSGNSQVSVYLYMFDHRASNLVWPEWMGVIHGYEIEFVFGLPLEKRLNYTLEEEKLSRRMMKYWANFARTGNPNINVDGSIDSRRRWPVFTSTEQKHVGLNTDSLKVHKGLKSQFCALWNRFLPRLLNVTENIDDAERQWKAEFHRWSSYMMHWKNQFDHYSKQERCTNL

| Structure (SMILES) | IC50 (Acetylcholinesterase) | Ki (Acetylcholinesterase) | inhibition [1] |
| --- | --- | --- | --- |
| CCOC(=O)c1cc2ccc(OCCN3CCCCC3)cc2oc1=O | 0.356 µM | 0.031 µM | > 80% |
| O=C(NCCN1CCCCC1)c1cc2ccccc2oc1=O | 12.6 µM | 13.8 µM | > 80% |
